This note sets out measurements from ChEMBL document CHEMBL6078648, “Prioritization of Eleven-Nineteen-Leukemia Inhibitors as Orally Available Drug Candidates for Acute Myeloid Leukemia” (J Med Chem, 2024).

Data set [1] has as its system Jurkat. In words: Antiproliferative activity against human Jurkat cells assessed as reduction in cell proliferation at 1 uM measured upto 2 weeks. It counts as functional, cell-based.
Data set [2] can be described thus: Metabolic stability in human plasma assessed as parent compound remaining measured after 1 hrs by HPLC-MS/MS analysis. It counts as ADME, cell-free.
A short description of data set [3]: Cytotoxicity against human HEK293T cells assessed as cell viability incubated for 8 days by CCK-8 assay. It counts as toxicity, cell-based, HEK-293T. The note with it: time 8 day.
Data set [4] addresses T1, Protein ENL (Homo sapiens) (UniProt Q03111).
T1 sequence (whole entry): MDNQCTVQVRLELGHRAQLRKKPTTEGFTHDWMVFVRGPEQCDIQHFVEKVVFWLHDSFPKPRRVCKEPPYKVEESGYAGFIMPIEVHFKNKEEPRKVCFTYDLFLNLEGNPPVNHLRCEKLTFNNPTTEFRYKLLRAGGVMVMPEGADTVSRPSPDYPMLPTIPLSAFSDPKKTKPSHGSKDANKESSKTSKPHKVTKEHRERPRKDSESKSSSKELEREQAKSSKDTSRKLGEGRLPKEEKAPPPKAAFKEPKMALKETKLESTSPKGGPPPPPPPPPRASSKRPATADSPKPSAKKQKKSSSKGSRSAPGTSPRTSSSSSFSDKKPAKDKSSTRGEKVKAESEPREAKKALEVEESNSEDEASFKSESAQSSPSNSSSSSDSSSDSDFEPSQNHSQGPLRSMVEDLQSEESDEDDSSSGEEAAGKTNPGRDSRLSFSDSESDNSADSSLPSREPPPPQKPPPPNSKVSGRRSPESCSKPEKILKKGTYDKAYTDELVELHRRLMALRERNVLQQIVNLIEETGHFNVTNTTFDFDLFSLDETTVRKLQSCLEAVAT
In words: Inhibition of ENL YEATS domain (unknown origin) (1 to 148 residues) preincubated with compound for 1 hr followed by alpha-bead addition and measured after 30 mins under dark condition by Alphascreen assay. To be noted: time 90.0 min.

Data set [5] has as its system MV4-11. In words: Cytotoxicity against human MV4-11 cells assessed as cell viability incubated for 8 days by CCK-8 assay. The format is functional. The note with it: for Activity: time 8.0 day.
For data set [6], the system named is MOLM-13. The data set is described as follows: Cytotoxicity against human MOLM-13 cells assessed as cell viability upto 100 uM incubated for 72 hrs by CCK-8 assay. The format is functional, cell-based.
Data set [7] is described as follows: Metabolic stability in human plasma assessed as parent compound remaining measured after 2 hrs by HPLC-MS/MS analysis. It counts as ADME, cell-free.
Data set [8] has as its system MV4-11. In words: Cytotoxicity against human MV4-11 cells assessed as cell viability upto 100 uM incubated for 72 hrs by CCK-8 assay. The format is functional, cell-based.
In data set [9] the test system is MOLM-13. The data set is described as follows: Cytotoxicity against human MOLM-13 cells assessed as cell viability incubated for 8 days by CCK-8 assay. It counts as functional. To be noted: for Activity: time 8.0 day.
Data set [10] addresses T1, Protein ENL (Homo sapiens). In words: Binding affinity to ENL YEATS domain (unknown origin) expressed in HEK293 cells incubated for 2 hrs by NanoBRET assay. It counts as cell-based.
The test system of data set [11] is Jurkat. The data set is described as follows: Cytotoxicity against human Jurkat cells assessed as cell viability incubated for 8 days by CCK-8 assay. It counts as functional. The note with it: 192 h, time 8 day.
Data set [12] concerns the target T1, Protein ENL (Homo sapiens). In words: Binding affinity to ENL YEATS domain (unknown origin) (1 to 148 residues) expressed in HEK293 cells assessed as […] incubated for 2 hrs by NanoBRET assay. The format is cell-based. The note with it: dose <= 100.0 µM.

The source made the active and inactive calls. No cut-off for these calls is given here.

Turning to `C[C@H]1CCCN1Cc1cc2cnc(NC(=O)c3ccc4nncn4c3)cc2[nH]1`, the result in the data set with Jurkat [1] was inactive. Moreover, the Stability in [2] is recorded as above 60%. Further, the cytotoxic concentration (CC50) at 192 h in data set [3] is above 64 µM.

On to `O=C(NCc1ccc(CN2CCCCC2)cc1)c1ccc2nncn2c1`, for which the inhibition result in data set [4] was “Active”.

Turning to `O=C(NCc1cccc(CN2CCC2)c1)c1ccc2nncn2c1`, the outcome with MV4-11 [5] and with MOLM-13 [9] was inactive. The outcome in the data set on MOLM-13 [6] and with MV4-11 [8] was Active. Also, the Stability is given as 94.94% in [7] and above 60% in [2].

Take `O=C(CCC1=[N+]2C(=Cc3ccc(-c4ccc[nH]4)n3[B-]2(F)F)C=C1)NCCCCSc1ccc(CNC(=O)c2ccc3nncn3c2)cc1`: the result in data set [10] was Active.

For `CC(C)C1CCN1Cc1cc2cnc(NC(=O)c3ccc4nncn4c3)cc2[nH]1` (configuration not stated), the 50% cytotoxic concentration (CC50) was above 64 µM with Jurkat [11]; below 4 µM in the data set with MV4-11 [5] (MV4-11, 192 h, time 8 day); below 4 µM in the data set with MOLM-13 [9] (MOLM-13, 192 h, time 8 day). The outcome in the data set with Jurkat [1] was inactive. Besides, the 50% cytotoxic concentration (CC50) at 192 h in [3] is above 64 µM.

For `CC1CCN1Cc1ccc(CNC(=O)c2ccc3nncn3c2)cc1` (configuration not stated), the outcome in the data set with MV4-11 [5] and in the data set with MOLM-13 [9] was inactive. The outcome in the data set on MOLM-13 [6] and in the data set on MV4-11 [8] was Active.

On to `O=C(CCC1=[N+]2C(=Cc3ccc(-c4ccc[nH]4)n3[B-]2(F)F)C=C1)NCCCC(=O)Nc1cccc(-c2cn3cc(C(=O)NC4CCC4)ccc3n2)c1`, for which, in data set [12], the Activity entry was “Dose-dependent-effect”.

On to `O=C(NCc1ccc(CN2CCC2)cc1)c1ccc2nncn2c1`, for which the inhibition entry in data set [4] is “Active”.
